Results from patent US10383910B2, “Methods of increasing fertility of a male subject with costus speciosus extract” (priority 2016, dated 2019).

What was measured:
testes = testes weights of rats after 90 days of treatment; type: in vivo, rat; conditions: vs control group GI
Experimental: (§1) Statistical analyses were performed using SPSS software version 21.00. One-way analysis of variance (ANOVA), post-hoc and least significant difference (LSD) were performed for intergroup comparisons. P>0.05, P≤0.05, and P≤0.001 were considered non-significant, significant, and highly significant, respectively.

[1] = body weights of rats after 90 days of treatment; type: in vivo, rat
Experimental: as §1

[2] = plasma levels of testosterone of rats after 90 days of treatment; type: in vivo, rat
Experimental: as §1

testis of the rats = assay: histological examination of the rat testis (light microscopy, hematoxylin-eosin); conditions: 90 days
Experimental: The experiments in the Examples were conducted on 30 male albino rats of the Wister strain with an age range of 40-45 days (approximately 6 weeks) and a weight range of 68-122 g. […] The rats were provided feed and water, and bred in a private room with a temperature of 24±2° C., a relative humidity of 55±5%, and a 12-hour light/12-hour dark cycle.
The first treatment group (GI) was a control treatment group composed of 5 rats that were given distilled water orally throughout the experiment.
The second treatment group (GII) was composed of 5 rats that were orally administered with only the root extract of Costus speciosus at a dose of 2 mg/kg body weight/day.
The third treatment group (GIII) was composed of 5 rats that were orally administered with risperidone at a low dose of 1 mg/kg body weight/day.
The fourth treatment group (GIV) was composed of 5 rats that were orally administered with both risperidone at the low dose of 1 mg/kg body weight/day and the root extract of Costus speciosus at 2 mg/kg body weight/day.
The fifth treatment group (GV) was composed of 5 rats that were orally administered with risperidone at a high dose of 2 mg/kg body weight/day.
The sixth treatment group (GVI) was composed of 5 rats that were orally administered with both the high dose of risperidone at 2 mg/kg body weight/day and the root extract of Costus speciosus at 2 mg/kg body weight/day. […]

[3] = GV: risperidone high dose 2 mg/kg/day oral

Question: Which results are given for `Cc1nc2n(c(=O)c1CCN1CCC(c3noc4cc(F)ccc34)CC1)CCCC2` [risperidone, Risperidone]?
Answer: testes weight (testes; GIII: risperidone low dose 1 mg/kg/day oral): insignificant reduction in testes weight; testes weight (testes; [3]): insignificant reduction in testes weight; body weight ([1]; GIII: risperidone low dose 1 mg/kg/day oral, vs GI or GII): significant increase in body weight; body weight ([1]; GV: risperidone high dose 2 mg/kg/day oral, vs GIII (low dose risperidone)): significant increase in body weight; plasma level of testosterone ([2]; GIII: risperidone low dose 1 mg/kg/day oral, vs GIV (low dose + root extract)): insignificant reduction in the plasma level of testosterone; plasma level of testosterone ([2]; GV: risperidone high dose 2 mg/kg/day oral, vs GVI (high dose + root extract)): insignificant reduction in the plasma level of testosterone; histological findings in the testis (testis of the rats; GIII: risperidone low dose 1 mg/kg/day oral, vs GI): abnormal, disorganized, and atrophied seminiferous tubules (ST), disorganization of germinal epithelium, a loss of spermatogenic cell types (pointed by arrows), and a massive and wide-spread destruction of germ cells; histological findings in the testis (testis of the rats; [3]): degeneration of the germinal epithelium lining (arrowheads), vacuolation of seminiferous tubules (ST) (*), and intertubular oedema
